Where two headings read alike, the source gives them in different places.
Tests used:
[1] = tested on: influenza A/PR/8/34 (H1N1); assay: microbe, parasite or virus in culture; type: cell-based, influenza A virus
influenza B/GL/1739/54 = assay: Anti-viral EC50 experiment, survival of virus-infected Vero cells; type: cell-based, influenza B virus; conditions: for EC50 Virus B/GL/1739/54: Table 3, Vero cells, n at least 2, No effic. = no efficacy measured; for EC50: Influenza B virus, Vero, Table 4, controls, cutoff control values, determined over only 2 experiments
Experimental: The following MDT compounds were tested: MDT-1, MDT-3, MDT-10, MDT-11, MDT-12, MDT-13, MDT-14, MDT-15, MDT-16, MDT-22, MDT-23, MDT-24, MDT-26, MDT-27, MDT-28, MDT-29, MDT-30, MDT-31, MDT-32, MDT-33, MDT-34, MDT-40, MDT-41, MDT-42, MDT-43, MDT-44, MDT-45, MDT-46, MDT-47, MDT-48, MDT-49, MDT-50, MDT-51, MDT-53, MDT-56, MDT-57, MDT-58, MDT-59, MDT-60, MDT-61, MDT-62, MDT-63, MDT-65, MDT-67, MDT-68 and MDT-69. […] Amantadine and rimantadine are both adamantane derivatives.
Compound diluents were dimethyl sulfoxide (DMSO), Molecusol ((2-hydroxypropyl)-β-cyclodextrin; Sigma H107), propylene-glycol (PG) and deionized water. Diluents were used singly or in combination as necessary to dissolve the compounds.
The medium used for the cell lines was 1× Minimal Essential Medium (MEM) (Invitrogen) supplemented with 1% L-glutamine, 1% penicillin-streptomycin, 0.125% bovine serum albumin (BSA), and 1 μg/ml of TPCK-trypsin.
The viruses tested were influenza A/PR/8/34 (H1N1), influenza A/WS/33 (H1N1), influenza A/HK/8/68 (H3N2) and influenza B/GL/1739/54 (no H, N subtyping). Cells used were the Vero line of African green monkey, normal kidney cells. All viruses and cells were obtained from The American Type Culture Collection (Rockville, Md.). Cells were grown in an atmosphere of 4-6% CO2 at 34-38° C. in MEM with 5% fetal bovine serum (FBS), 2 mM glutamine, and 1% penicillin-streptomycin solution to maintain exponential growth.
The Vero cells were plated on Day 0. On Day 1, cells were infected with virus and incubated with various concentrations of test compounds. […] On Day 4 the cells were fixed and stained. […] Cell survival due to exposure to test compound was indicative of anti-viral activity.

influenza A/WS/33 (H1N1) = assay: microbe, parasite or virus in culture; type: cell-based, influenza A virus
[2] = tested on: influenza A/HK/8/68 (H3N2); assay: microbe, parasite or virus in culture; type: cell-based, influenza A virus
[3] = Table 3, Vero cells, H1N1, n at least 2, No effic. = no efficacy measured, read-out: EC50 Virus A/PR/8/34
[4] = Table 3, MDT compounds, No Tox. = no cytotoxicity measured
[5] = Table 3, Vero cells, H1N1, n at least 2, No effic. = no efficacy measured, read-out: EC50 Virus A/WS/33
[6] = Table 3, Vero cells, H3N2, n at least 2, No effic. = no efficacy measured
[7] = Table 3, Vero cells, H1N1, n at least 2, No effic. = no efficacy measured
[8] = Table 3, Vero cells, H3N2, n at least 2, No effic. = no efficacy measured, read-out: EC50 Virus A/HK/8/68
[9] = Influenza A virus, Vero, Table 4, controls, cutoff control values compiled through many experiments
[10] = Table 4, controls, No Tox = no cytotoxicity measured
[11] = Influenza A virus, H1N1, Vero, Table 4, controls, cutoff control values compiled through many experiments
[12] = Influenza A virus, H3N2, Vero, Table 4, controls, cutoff control values compiled through many experiments

| SMILES | EC50 [1, 3] | EC50 Virus B/GL/1739/54 (influenza B/GL/1739/54) | Cytotoxicity (Vero cells; [4]) | EC50 (influenza A/WS/33 (H1N1); [5]) | EC50 Virus A/HK/8/68 [2, 6] | EC50 Virus A/PR/8/34 [1, 7] | EC50 Virus A/WS/33 (influenza A/WS/33 (H1N1); [7]) | EC50 [2, 8] | EC50 [1, 9] | EC50 (influenza B/GL/1739/54) | Cytotoxicity (Vero cells; [10]) | EC50 (influenza A/WS/33 (H1N1); [11]) | EC50 [2, 12] |
| --- | --- | --- | --- | --- | --- | --- | --- | --- | --- | --- | --- | --- | --- |
| CC12CC3C4CC5(C)CC3C(C1)C(O)(C5)C4C2 [MDT-47, 4,9-dimethyl-1-hydroxydiamantane] | < 125 nM | No Effic. | No Tox. | 460 nM | No Effic. |  |  |  |  |  |  |  |  |
| CC(N)C12CC3CC4C5CC(CC41)CC2C5C3 (stereo not drawn) [MDT-57, 1-(1-aminoethyl)diamantane] |  | No Effic. | 50 or above μM |  |  | No Effic. | No Effic. | 160 nM |  |  |  |  |  |
| NCC12CC3C4CC5CC3C(C1)C(C5)C4C2 [MDT-61, 4-diamantanemethylamine] |  | No Effic. | 50 or above μM |  |  | No Effic. | No Effic. | 100 nM |  |  |  |  |  |
| CC(N)C12CC3C4CC5CC3C(C1)C(C5)C4C2 (stereo not drawn) [MDT-62, 4-(1-aminoethyl)diamantane] | 280 nM | No Effic. | 50 or above μM | 1940 nM | No Effic. |  |  |  |  |  |  |  |  |
| CCOC(=O)C1=C[C@@H](OC(CC)CC)[C@H](NC(C)=O)[C@@H](N)C1 [Oseltamivir, reference compound] |  |  |  |  |  |  |  |  | ≥ 10000 nM | ≥ 15 µM | No Tox. | ≥ 5000 nM | ≤ 1000 nM |
| CC(N)C12CC3CC(CC(C3)C1)C2.Cl (stereo not drawn) [Rimantadine, alpha-methyl-1-adamantanemethylamine hydrochloride, reference compound] |  |  |  |  |  |  |  |  | ≥ 1000 nM | ≥ 50 µM | No Tox. | ≥ 50000 nM | ≤ 1000 nM |
